From ChEMBL document CHEMBL1201862, “PubChem BioAssay data set” (2004)
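Interpolation was linear, between the two tested concentrations surrounding the appropriate level; five concentrations were tested over 48 hours in 96-well plates. Abbreviation: GI50, concentration required for 50% inhibition of growth.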 Activity calls are given as the source filed them. Rule as the data show it: active = GI50 up to about 1.1 µM and inactive = higher.

Experiments:
Experiment in all cases: NCI tumour cell line growth inhibition, 48 h
NCI-H226 = tested on: NCI-H226
SK-MEL-28 = tested on: SK-MEL-28
NCI-H522 = tested on: NCI-H522
COLO 205 = tested on: COLO 205
SF-295 = tested on: SF-295
HCT-15 = tested on: HCT-15
CAKI-1 = tested on: CAKI-1
Hs-578T = tested on: Hs-578T
MOLT-4 = tested on: MOLT-4
Malme-3M = tested on: Malme-3M
NCI/ADR-RES = tested on: NCI/ADR-RES
HCT-116 = tested on: HCT-116
PC-3 = tested on: PC-3
SF-268 = tested on: SF-268
SR = tested on: SR
SK-MEL-2 = tested on: SK-MEL-2
SF-539 = tested on: SF-539

SMILES	GI50 (NCI-H226)	GI50 (SK-MEL-28)	GI50 (NCI-H522)	GI50 (COLO 205)	GI50 (SF-295)	GI50 (HCT-15) [µM]	GI50 (CAKI-1)	GI50 (Hs-578T)	GI50 (MOLT-4)	GI50 (Malme-3M)	GI50 (NCI/ADR-RES)	GI50 (HCT-116)	GI50 (PC-3)	GI50 (SF-268)	GI50 (SR)	GI50 (SK-MEL-2)	GI50 (SF-539)
CN(CCNC(=O)c1n[nH]c2c1Cc1ccccc1-2)CCNC(=O)c1n[nH]c2c1Cc1ccccc1-2	19.1 µM (inactive)	18.3 µM (inactive)	17.5 µM (inactive)	17.3 µM (inactive)	16.6 µM (inactive)	18.4	16.7 µM (inactive)	25.3 µM (inactive)	19.4 µM (inactive)	19.2 µM (inactive)	37.8 µM (inactive)	16.2 µM (inactive)	17.8 µM (inactive)	19.5 µM (inactive)	19.5 µM (inactive)		
COc1cccc(/N=N/C(=N\NC(=O)c2ccc(C)cc2)c2ccc(N(CCC#N)CCC#N)cc2C)c1	> 100 µM (inactive)	> 100 µM (inactive)		> 100 µM (inactive)	85.7 µM (inactive)	> 100	> 100 µM (inactive)	54.1 µM (inactive)	> 100 µM (inactive)	> 100 µM (inactive)	> 100 µM (inactive)	68.1 µM (inactive)	64.6 µM (inactive)	> 100 µM (inactive)	61.1 µM (inactive)	> 100 µM (inactive)	> 100 µM (inactive)
N=C(N)SCCON1C(=O)c2ccccc2C1=O	> 100 µM (inactive)	> 100 µM (inactive)	> 100 µM (inactive)	> 100 µM (inactive)	> 100 µM (inactive)	> 100	> 100 µM (inactive)	> 100 µM (inactive)	> 100 µM (inactive)	> 100 µM (inactive)	> 100 µM (inactive)	> 100 µM (inactive)	> 100 µM (inactive)	> 100 µM (inactive)	> 100 µM (inactive)	> 100 µM (inactive)	> 100 µM (inactive)
Cc1ccc2nc(Cl)c(/C=N/N3C(=O)/C(=C/Cc4ccco4)N=C3c3ccccc3)cc2c1	> 54.6 µM (inactive)	58.7 µM (inactive)	27.4 µM (inactive)	51.5 µM (inactive)	> 82.8 µM (inactive)	27.7	5.04 µM (inactive)	34.2 µM (inactive)	58.6 µM (inactive)	63.5 µM (inactive)	28.4 µM (inactive)	18.5 µM (inactive)	61.4 µM (inactive)	31.3 µM (inactive)	> 69.3 µM (inactive)	56.6 µM (inactive)	43.6 µM (inactive)
CCCCCCCCCCCCCCCCCCNc1ccn(C2OC(COP(=O)(O)OC3CC(n4cc(F)c(=O)[nH]c4=O)OC3COP(=O)(O)OCC3OC(n4ccc(N)nc4=O)C(O)C3O)C(O)C2O)c(=O)n1 (stereo not drawn)	> 24 µM (inactive)	24.7 µM (inactive)	13 µM (inactive)	8.17 µM (inactive)	0.413 µM (active)	12.2	4.47 µM (inactive)	> 67.8 µM (inactive)	0.611 µM (active)	> 46.9 µM (inactive)	14.5 µM (inactive)	1.03 µM (active)	7.14 µM (inactive)		0.407 µM (active)	18.1 µM (inactive)	< 0.01 µM (active)
CC1=NN=C(N)N/C1=C\C(Sc1ccc(Cl)cc1)c1ccc(Cl)cc1Cl (stereo not drawn)	15.1 µM (inactive)	21.8 µM (inactive)	3.79 µM (inactive)	18.9 µM (inactive)	16.9 µM (inactive)	10.9	25.4 µM (inactive)	17.5 µM (inactive)	7.29 µM (inactive)	13.4 µM (inactive)	17.6 µM (inactive)	8.02 µM (inactive)	11.6 µM (inactive)	12.6 µM (inactive)	> 100 µM (inactive)	16.4 µM (inactive)	
Cc1ccc(NC(Nc2ccc(C)cc2C)=C(C(Cl)=C(Cl)Cl)[N+](=O)[O-])c(C)c1	14.6 µM (inactive)	19.9 µM (inactive)	11.1 µM (inactive)	17.5 µM (inactive)		14.9	20.6 µM (inactive)	22.8 µM (inactive)	10.7 µM (inactive)	16.9 µM (inactive)	7.21 µM (inactive)	13.7 µM (inactive)	12.4 µM (inactive)	17.3 µM (inactive)	2.9 µM (inactive)		21.3 µM (inactive)
CC(NC(=O)OCc1ccccc1)NC(=O)C(CC(=O)OC(C)(C)C)NC(=O)OC(C)(C)C (stereo not drawn)	> 100 µM (inactive)	> 100 µM (inactive)	> 100 µM (inactive)	> 100 µM (inactive)	> 100 µM (inactive)	> 100	> 100 µM (inactive)	> 100 µM (inactive)	> 100 µM (inactive)	> 100 µM (inactive)	> 100 µM (inactive)	> 100 µM (inactive)	> 100 µM (inactive)	98.4 µM (inactive)		> 100 µM (inactive)	> 100 µM (inactive)
